{"source": "ChEMBL document CHEMBL5537158", "about": "“Polymyxins with Potent Antibacterial Activity against Colistin-Resistant Pathogens: Fine-Tuning Hydrophobicity with Unnatural Amino Acids” (J Med Chem, 2024)", "note": "Positions of bridges follow the written chain, without caps; N, C: chain ends. Non-standard residues stand in square brackets, D forms with d. Residues, ends and D or L forms follow the SMILES beside them. *: point of attachment. Phe(3,4,5-F3) = N[C@@H](Cc1cc(F)c(F)c(F)c1)C(=O)O; Phe(4-CF3) = N[C@@H](Cc1ccc(C(F)(F)F)cc1)C(=O)O; Phe(4-Br) = N[C@@H](Cc1ccc(Br)cc1)C(=O)O; Phe(3-F) = N[C@@H](Cc1cccc(F)c1)C(=O)O; Phe(2-F) = N[C@@H](Cc1ccccc1F)C(=O)O; d(hhPhe) = N[C@H](CCCc1ccccc1)C(=O)O; Gly(octyl) = CCCCCCCC[C@H](N)C(=O)O; d(hPhe) = N[C@H](CCc1ccccc1)C(=O)O; d(hLeu) = CC(C)CC[C@@H](N)C(=O)O; dAoc(2) = CCCCCC[C@@H](N)C(=O)O; hLeu = CC(C)CC[C@H](N)C(=O)O; Octanoyl = CCCCCCCC(=O)*; Dab = NCC[C@H](N)C(=O)O"}
{"experiment": "Hemolytic activity in human RBC at 400 ug/ml after 1 hr", "type": "toxicity, cell-based, Erythrocyte", "details": "red blood cells (erythrocytes), at 400 µg/mL, read-out: Activity", "units": {"hemolysis at 1 h, 400 ug/ml": "%"}}
{"smiles": "CCCCCCCC(=O)N[C@@H](CCN)C(=O)N[C@H](C(=O)N[C@@H](CCN)C(=O)N[C@H]1CCNC(=O)[C@H]([C@@H](C)O)NC(=O)[C@H](CCN)NC(=O)[C@H](CCN)NC(=O)[C@H](CCCc2ccccc2)NC(=O)[C@@H](Cc2ccccc2)NC(=O)[C@H](CCN)NC1=O)[C@@H](C)O", "hemolysis at 1 h, 400 ug/ml": "< 10"}
{"smiles": "CCCCCCCC(=O)N[C@@H](CCN)C(=O)N[C@H](C(=O)N[C@@H](CCN)C(=O)N[C@H]1CCNC(=O)[C@H]([C@@H](C)O)NC(=O)[C@H](CCN)NC(=O)[C@H](CCN)NC(=O)[C@H](CC(C)C)NC(=O)[C@@H](Cc2ccc(Br)cc2)NC(=O)[C@H](CCN)NC1=O)[C@@H](C)O", "hemolysis at 1 h, 400 ug/ml": "< 10"}
{"smiles": "CCCCCCCC(=O)N[C@@H](CCN)C(=O)N[C@H](C(=O)N[C@@H](CCN)C(=O)N[C@H]1CCNC(=O)[C@H]([C@@H](C)O)NC(=O)[C@H](CCN)NC(=O)[C@H](CCN)NC(=O)[C@H](CCCCCC)NC(=O)[C@@H](Cc2ccccc2)NC(=O)[C@H](CCN)NC1=O)[C@@H](C)O", "hemolysis at 1 h, 400 ug/ml": "< 10"}
{"smiles": "CC(=O)N[C@H](Cc1ccccc1F)C(=O)N[C@@H](CCN)C(=O)N[C@H](C(=O)N[C@@H](CCN)C(=O)N[C@H]1CCNC(=O)[C@H]([C@@H](C)O)NC(=O)[C@H](CCN)NC(=O)[C@H](CCN)NC(=O)[C@H](CC(C)C)NC(=O)[C@@H](Cc2ccccc2)NC(=O)[C@@H](CCN)NC1=O)[C@H](C)O", "hemolysis at 1 h, 400 ug/ml": "< 10"}
{"smiles": "CCCCCCCC(=O)N[C@@H](CCN)C(=O)N[C@H](C(=O)N[C@@H](CCN)C(=O)N[C@H]1CCNC(=O)[C@H]([C@@H](C)O)NC(=O)[C@H](CCN)NC(=O)[C@H](CCN)NC(=O)[C@H](Cc2ccccc2)NC(=O)[C@@H](CCC(C)C)NC(=O)[C@H](CCN)NC1=O)[C@@H](C)O", "note": "(Octanoyl-[Dab]T[Dab][Dab][Dab][d(hLeu)]F[Dab][Dab]T; lactam 4-C)", "hemolysis at 1 h, 400 ug/ml": "< 10"}
{"smiles": "CCCCCCCC(=O)N[C@@H](CCN)C(=O)N[C@H](C(=O)N[C@@H](CCN)C(=O)N[C@H]1CCNC(=O)[C@H]([C@@H](C)O)NC(=O)[C@H](CCN)NC(=O)[C@H](CCN)NC(=O)[C@H](Cc2ccccc2)NC(=O)[C@@H](CCc2ccccc2)NC(=O)[C@H](CCN)NC1=O)[C@@H](C)O", "note": "(Octanoyl-[Dab]T[Dab][Dab][Dab][d(hPhe)]F[Dab][Dab]T; lactam 4-C)", "hemolysis at 1 h, 400 ug/ml": "< 10"}
{"smiles": "CCCCCCCC(=O)N[C@@H](CCN)C(=O)N[C@H](C(=O)N[C@@H](CCN)C(=O)N[C@H]1CCNC(=O)[C@H]([C@@H](C)O)NC(=O)[C@H](CCN)NC(=O)[C@H](CCN)NC(=O)[C@H](CC(C)C)NC(=O)[C@@H](CCc2ccccc2)NC(=O)[C@H](CCN)NC1=O)[C@@H](C)O", "note": "(Octanoyl-[Dab]T[Dab][Dab][Dab][d(hPhe)]L[Dab][Dab]T; lactam 4-C)", "hemolysis at 1 h, 400 ug/ml": "< 10"}
{"smiles": "CCCCCCCC(=O)N[C@@H](CCN)C(=O)N[C@H](C(=O)N[C@@H](CCN)C(=O)N[C@H]1CCNC(=O)[C@H]([C@@H](C)O)NC(=O)[C@H](CCN)NC(=O)[C@H](CCN)NC(=O)[C@H](Cc2ccccc2)NC(=O)[C@@H](CCCc2ccccc2)NC(=O)[C@H](CCN)NC1=O)[C@@H](C)O", "note": "(Octanoyl-[Dab]T[Dab][Dab][Dab][d(hhPhe)]F[Dab][Dab]T; lactam 4-C)", "hemolysis at 1 h, 400 ug/ml": "< 10"}
{"smiles": "CCCCCCCC(=O)N[C@@H](CCN)C(=O)N[C@H](C(=O)N[C@@H](CCN)C(=O)N[C@H]1CCNC(=O)[C@H]([C@@H](C)O)NC(=O)[C@H](CCN)NC(=O)[C@H](CCN)NC(=O)[C@H](CC(C)C)NC(=O)[C@@H](CCCc2ccccc2)NC(=O)[C@H](CCN)NC1=O)[C@@H](C)O", "note": "(Octanoyl-[Dab]T[Dab][Dab][Dab][d(hhPhe)]L[Dab][Dab]T; lactam 4-C)", "hemolysis at 1 h, 400 ug/ml": "< 10"}
{"smiles": "CCCCCCCC(=O)N[C@@H](CCN)C(=O)N[C@H](C(=O)N[C@@H](CCN)C(=O)N[C@H]1CCNC(=O)[C@H]([C@@H](C)O)NC(=O)[C@H](CCN)NC(=O)[C@H](CCN)NC(=O)[C@H](Cc2ccccc2)NC(=O)[C@@H](CCCCCC)NC(=O)[C@H](CCN)NC1=O)[C@@H](C)O", "note": "(Octanoyl-[Dab]T[Dab][Dab][Dab][dAoc(2)]F[Dab][Dab]T; lactam 4-C)", "hemolysis at 1 h, 400 ug/ml": "< 10"}
{"smiles": "CCCCCCCC[C@@H]1NC(=O)[C@@H](Cc2ccccc2)NC(=O)[C@H](CCN)NC(=O)[C@@H](NC(=O)[C@H](CCN)NC(=O)[C@@H](NC(=O)[C@H](CCN)NC(=O)CCCCCCC)[C@@H](C)O)CCNC(=O)[C@H]([C@@H](C)O)NC(=O)[C@H](CCN)NC(=O)[C@H](CCN)NC1=O", "note": "(Octanoyl-[Dab]T[Dab][Dab][Dab][dF][Gly(octyl)][Dab][Dab]T; lactam 4-C)", "hemolysis at 1 h, 400 ug/ml": "< 10"}
{"smiles": "CCCCCCCC(=O)N[C@@H](CCN)C(=O)N[C@H](C(=O)N[C@@H](CCN)C(=O)N[C@H]1CCNC(=O)[C@H]([C@@H](C)O)NC(=O)[C@H](CCN)NC(=O)[C@H](CCN)NC(=O)[C@H](CCC(C)C)NC(=O)[C@@H](Cc2ccccc2)NC(=O)[C@H](CCN)NC1=O)[C@@H](C)O", "note": "(Octanoyl-[Dab]T[Dab][Dab][Dab][dF][hLeu][Dab][Dab]T; lactam 4-C)", "hemolysis at 1 h, 400 ug/ml": "< 10"}
{"smiles": "CCCCCCCC(=O)N[C@@H](CCN)C(=O)N[C@H](C(=O)N[C@@H](CCN)C(=O)N[C@H]1CCNC(=O)[C@H]([C@@H](C)O)NC(=O)[C@H](CCN)NC(=O)[C@H](CCN)NC(=O)[C@H](Cc2ccccc2F)NC(=O)[C@@H](CC(C)C)NC(=O)[C@H](CCN)NC1=O)[C@@H](C)O", "note": "(Octanoyl-[Dab]T[Dab][Dab][Dab][dL][Phe(2-F)][Dab][Dab]T; lactam 4-C)", "hemolysis at 1 h, 400 ug/ml": "< 10"}
{"smiles": "CCCCCCCC(=O)N[C@@H](CCN)C(=O)N[C@H](C(=O)N[C@@H](CCN)C(=O)N[C@H]1CCNC(=O)[C@H]([C@@H](C)O)NC(=O)[C@H](CCN)NC(=O)[C@H](CCN)NC(=O)[C@H](Cc2cc(F)c(F)c(F)c2)NC(=O)[C@@H](CC(C)C)NC(=O)[C@H](CCN)NC1=O)[C@@H](C)O", "note": "(Octanoyl-[Dab]T[Dab][Dab][Dab][dL][Phe(3,4,5-F3)][Dab][Dab]T; lactam 4-C)", "hemolysis at 1 h, 400 ug/ml": "< 10"}
{"smiles": "CCCCCCCC(=O)N[C@@H](CCN)C(=O)N[C@H](C(=O)N[C@@H](CCN)C(=O)N[C@H]1CCNC(=O)[C@H]([C@@H](C)O)NC(=O)[C@H](CCN)NC(=O)[C@H](CCN)NC(=O)[C@H](Cc2cccc(F)c2)NC(=O)[C@@H](CC(C)C)NC(=O)[C@H](CCN)NC1=O)[C@@H](C)O", "note": "(Octanoyl-[Dab]T[Dab][Dab][Dab][dL][Phe(3-F)][Dab][Dab]T; lactam 4-C)", "hemolysis at 1 h, 400 ug/ml": "< 10"}
{"smiles": "CCCCCCCC(=O)N[C@@H](CCN)C(=O)N[C@H](C(=O)N[C@@H](CCN)C(=O)N[C@H]1CCNC(=O)[C@H]([C@@H](C)O)NC(=O)[C@H](CCN)NC(=O)[C@H](CCN)NC(=O)[C@H](Cc2ccc(Br)cc2)NC(=O)[C@@H](CC(C)C)NC(=O)[C@H](CCN)NC1=O)[C@@H](C)O", "note": "(Octanoyl-[Dab]T[Dab][Dab][Dab][dL][Phe(4-Br)][Dab][Dab]T; lactam 4-C)", "hemolysis at 1 h, 400 ug/ml": "< 10"}
{"smiles": "CCCCCCCC(=O)N[C@@H](CCN)C(=O)N[C@H](C(=O)N[C@@H](CCN)C(=O)N[C@H]1CCNC(=O)[C@H]([C@@H](C)O)NC(=O)[C@H](CCN)NC(=O)[C@H](CCN)NC(=O)[C@H](Cc2ccc(C(F)(F)F)cc2)NC(=O)[C@@H](CC(C)C)NC(=O)[C@H](CCN)NC1=O)[C@@H](C)O", "note": "(Octanoyl-[Dab]T[Dab][Dab][Dab][dL][Phe(4-CF3)][Dab][Dab]T; lactam 4-C)", "hemolysis at 1 h, 400 ug/ml": "< 10"}
